According to US20240174690A1, “ANNULATED 2-AMINO-3-CYANO THIOPHENES AND DERIVATIVES FOR THE TREATMENT OF CANCER” (BOEHRINGER INGELHEIM INTERNATIONAL GMBH, priority 2021, published 2024):

Legend:
KRAS (G12D)::SOS1 = KRAS (G12D)::SOS1 (Homo sapiens (Human), UniProt P01116, G12D); test: KRAS::SOS1 AlphaScreen binding assay, KRAS G12D
Text: This assay can be used to examine the potency with which compounds according to the invention binding to (mutated) KRAS inhibit the protein-protein interaction between SOS1 and (mutated) KRAS e.g., KRAS WT, KRAS G12C, KRAS G12D, KRAS G12V, KRAS G13D. […] Low IC50 values in this assay setting are indicative of strong inhibition of protein-protein interaction between SOS1 and KRAS:
These assays measure the inhibitory effect of compounds on KRAS mutant protein-protein interactions using the Alpha Screen technology by Perkin Elmer.
The following (mutant) enzyme forms of KRAS and interacting proteins are used in these assays at the given concentrations: • KRAS (G12D) 1-169, N-terminal 6His-tag, C-terminal avi-tag (Xtal BioStructures, Inc.); final assay concentration 10 nM and SOS1 564-1049, N-terminal 229 GST-tag, TEV cleavage site (Viva Biotech Ltd); final assay concentration 5 nM; • KRAS (G12C) 1-169, N-terminal 6His-tag for purification, cleaved off, C-terminal avi-tag, biotinylated, mutations: C51S, C80L, C118S (in house); final assay concentration 7.5 nM and SOS1 564-1049, N-terminal 229 GST-tag, TEV cleavage site (Viva Biotech Ltd); final assay concentration 5 nM; • KRAS (G12V) 1-169, N-terminal 6His-tag for purification, cleaved off, C-terminal avi-tag, biotinylated, TEV cleavage site, mutation: C118S, GDP loaded (in house); final assay concentration 10 nM and SOS1 564-1049, N-terminal 229 GST-tag, TEV cleavage site (Viva Biotech Ltd); final assay concentration 10 nM; • KRAS (G13D) 1-169, N-terminal 6His-tag for purification, cleaved off, C-terminal avi-tag, biotinylated, TEV cleavage site, mutation: C118S, GDP loaded (in house); final assay concentration 10 nM and SOS1 564-1049, N-terminal 229 GST-tag, TEV cleavage site (Viva Biotech Ltd); final assay concentration 10 nM; • KRAS (WT) 1-169, N-terminal 6His-tag for purification, cleaved off, C-terminal avi-tag, biotinylated, TEV cleavage site, mutation: C118S, GDP loaded (in house); final assay concentration 10 nM and SOS1 564-1049, N-terminal 229 GST-tag, TEV cleavage site (Viva Biotech Ltd); final assay concentration 10 nM.
Test compounds dissolved in DMSO are dispensed onto assay plates (Proxiplate 384 PLUS, white, PerkinElmer; 6008289) using an Access Labcyte Workstation with the Labcyte Echo 55×. For the chosen highest assay concentration of 100 μM, 150 nL of compound solution are transferred from a 10 mM DMSO compound stock solution. A series of eleven fivefold dilutions per compound are transferred to the assay plate, compound dilutions are tested in duplicates. DMSO are added as backfill to a total volume of 150 nL.
The assays run on a fully automated robotic system in a darkened room below 100 Lux. To 150 nl of compound dilution 10 μl of a mix including KRAS mutant protein, SOS1 (final assay concentrations see above) and GDP nucleotide (Sigma G7127; final assay concentration 10 μM) in assay buffer (1×PBS, 0.1% BSA, 0.05% Tween 20) are added into columns 1-24.
After 30 minutes incubation time 5 μl of Alpha Screen bead mix in assay buffer are added into columns 1-23. Bead mix consists of AlphaLISA Glutathione Acceptor Beads (PerkinElmer, Cat No AL109) and AlphaScreen Streptavidin Donor Beads (PerkinElmer Cat No 6760002) in assay buffer at a final assay concentration of 10 μg/ml each.
Plates are kept at room temperature in a darkened incubator. After an additional 60 minutes incubation time the signal is measured in a PerkinElmer Envision HTS Multilabel Reader using the AlphaScreen specs from PerkinElmer.
Each plate contains up to 16 wells of a negative control depending on the dilution procedure (platewise or serial) (DMSO instead of test compound; with KRAS mutant::SOS1 GDP mix and bead mix; column 23) and 16 wells of a positive control (DMSO instead of test compound; with KRAS mutant::SOS1 GDP mix w/o bead mix; column 24).
As internal control known inhibitors of KRAS mutant::SOS1 interaction can be measured on each compound plate. […]

NCI-H2122 cells = test: NCI-H2122 CTG proliferation assay (120 h) (NSCLC, G12C); format: cell-based; conditions: Homo sapiens
Protocol: NCI-H2122 CTG Proliferation Assay (120 h) (NSCLC, G12C)
The CTG assay is designed to measure quantitatively the proliferation of NCI-H2122 cells (ATCC CRL-5985), using the CellTiter Glow Assay Kit (Promega G7571). Cells are grown in RPMI medium (ATCC) supplemented with Fetal Calf Serum (Life Technologies, Gibco BRL, Cat. No. 10270-106). On “day 0” 200 NCI-H2122 cells are seeded in 60 μL RPMI ATCC+10% FCS+Penstrep in a black 384-well plate, flat and clear bottom (Greiner, PNr. 781091). Cells are then incubated in the plates at 37° C. in a CO2 incubator overnight. On day 1, compounds (10 mM stock in DMSO) are added with the ECHO acoustic liquid handler system (Beckman Coulter), including DMSO controls. Plates are incubated for 120 h, and cell viability is measured using CellTiter-Glo luminescent cell viability reagent (Promega product code G7570). Viability (stated as percent of control) is defined as relative luminescence units RLU of each well divided by the RLU of cells in DMSO controls. IC50 values are determined from viability measurements by non-linear regression using a four parameter model.

[1] = Plasma protein binding assay (PPB), equilibrium dialysis, 10% FCS in PBS; format: in vitro ADME; conditions: bovine, read-out: PPB 10% FCS (% fu)
Protocol: Binding of test compounds to plasma was determined using equilibrium dialysis (ED) and quantitative mass spectrometry interfaced with liquid chromatography (LC-MS). In brief, ED was performed with dialysis devices consisting of two chambers separated by a semipermeable membrane with a molecular weight cut-off of 5-10 kg/mol. One chamber was filled with 10% FCS in PBS containing 1-10 μmol/L test compound and the other chamber was filled with phosphate-buffer saline (PBS) with or without dextran. The dialysis chamber was incubated for 3-5 hours at 37° C. After incubation, protein was precipitated from aliquots of each chamber and the concentration of test compound in the supernatant of the plasma-containing compartment (Cserum) and of the buffer-containing compartment (Cbuffer) was determined by LC-MS. The fraction of unbound test compound (not bound to plasma) (fu) was calculated according to the following equation: […]

Sequence of KRAS (G12D)::SOS1 (P01116 other isoform, or with tags, fused parts or gaps G12D): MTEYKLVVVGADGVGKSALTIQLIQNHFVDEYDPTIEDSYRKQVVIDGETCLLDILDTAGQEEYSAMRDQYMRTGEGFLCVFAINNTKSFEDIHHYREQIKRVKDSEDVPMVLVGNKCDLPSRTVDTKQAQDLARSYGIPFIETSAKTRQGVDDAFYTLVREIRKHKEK

Row | SMILES | IC50 (KRAS (G12D)::SOS1) | IC50 (NCI-H2122 cells) | fraction unbound [1]
1 | C[C@H](Oc1cc(N2CCNC2=O)nc(-c2noc3c2CCC[C@@]32CCCc3sc(N)c(C#N)c32)n1)[C@@H]1CCCN1C [II-64] | 0.001 µM | 6.36 µM | 0.23
2 | C[C@H](Oc1cc(-n2ccc(C#N)n2)nc(-c2noc3c2CCC[C@@]32CCCc3sc(N)c(C#N)c32)n1)[C@@H]1CCCN1C [II-102] | 0.003 µM | 0.084 µM | 0.04
3 | C[C@H](Oc1cc(N2CCNC3(CC3)C2)nc(-c2onc3c2CCC[C@@]32CCCc3sc(N)c(C#N)c32)n1)[C@@H]1CCCN1C [I-5] | 0.001 µM | 2.42 µM | 0.51
4 | C[C@H](Oc1cc(-n2ccnc2Cl)nc(-c2noc3c2CCC[C@@]32CCCc3sc(N)c(C#N)c32)n1)[C@@H]1CCCN1C [II-93] | 0.003 µM | 1.56 µM | 0.05
5 | C[C@H](Oc1cc(-n2cnc3cccnc32)nc(-c2noc3c2CCC[C@@]32CCCc3sc(N)c(C#N)c32)n1)[C@@H]1CCCN1C [II-65] | 0.009 µM | 2.55 µM | 0.03
6 | CNC(=O)c1cn(-c2cc(O[C@@H](C)[C@@H]3CCCN3C)nc(-c3noc4c3CCC[C@@]43CCCc4sc(N)c(C#N)c43)n2)nn1 [II-122] | 0.004 µM | 0.961 µM | 0.44
7 | C[C@H](Oc1cc(-c2ccn3ncnc3c2)nc(-c2noc3c2CCC[C@@]32CCCc3sc(N)c(C#N)c32)n1)[C@@H]1CCCN1C [II-104] | 0.005 µM | – | 0.18
8 | C[C@H](Oc1cc(N2CCc3cccnc32)nc(-c2noc3c2CCC[C@@]32CCCc3sc(N)c(C#N)c32)n1)[C@@H]1CCCN1C [II-90] | 0.021 µM | 1.86 µM | 0.01
9 | C[C@H](Oc1cc(N2CCN(C)CC2)nc(-c2noc3c2CCC[C@@]32CCCc3sc(N)c(C#N)c32)n1)[C@@H]1CCCN1C [II-55] | 0.001 µM | 4.91 µM | 0.26
10 | C[C@H](Oc1cc(-c2ccn(C3CC3)n2)nc(-c2noc3c2CCC[C@@]32CCCc3sc(N)c(C#N)c32)n1)[C@@H]1CCCN1C [II-98] | 0.004 µM | 1.02 µM | 0.01
11 | C[C@H](Oc1cc(-c2cnsc2)nc(-c2noc3c2CCC[C@@]32CCCc3sc(N)c(C#N)c32)n1)[C@@H]1CCCN1C [II-111] | 0.003 µM | 0.858 µM | 0.11
12 | CC(=O)N1CC=C(c2cc(O[C@@H](C)[C@@H]3CCCN3C)nc(-c3noc4c3CCC[C@@]43CCCc4sc(N)c(C#N)c43)n2)CC1 [II-81] | 0.005 µM | 1.68 µM | 0.52
13 | C[C@H](Oc1cc(-c2ccn(C3COC3)n2)nc(-c2noc3c2CCC[C@@]32CCCc3sc(N)c(C#N)c32)n1)[C@@H]1CCCN1C [II-109] | 0.003 µM | 0.441 µM | 0.18
14 | COCc1cn(-c2cc(O[C@@H](C)[C@@H]3CCCN3C)nc(-c3noc4c3CCC[C@@]43CCCc4sc(N)c(C#N)c43)n2)nn1 [II-121] | 0.003 µM | 0.58 µM | 0.4
15 | C[C@H](Oc1cc(-c2ccn(-c3ccsc3)n2)nc(-c2noc3c2CCC[C@@]32CCCc3sc(N)c(C#N)c32)n1)[C@@H]1CCCN1C [II-84] | 0.006 µM | 0.583 µM | –
16 | C[C@H](Oc1cc(-c2cn(C3CCOCC3)nn2)nc(-c2noc3c2CCC[C@@]32CCCc3sc(N)c(C#N)c32)n1)[C@@H]1CCCN1C [II-115] | 0.013 µM | – | 0.43
17 | C[C@H](Oc1cc(N2CCNCC23CCOC3)nc(-c2onc3c2CCC[C@@]32CCCc3sc(N)c(C#N)c32)n1)[C@@H]1CCCN1C (stereo partly drawn) [I-10] | 0.001 µM | – | 0.7
18 | C[C@H](Oc1cc(-c2ccn(-c3ccccc3)n2)nc(-c2noc3c2CCC[C@@]32CCCc3sc(N)c(C#N)c32)n1)[C@@H]1CCCN1C [II-89] | 0.012 µM | 1.53 µM | –
19 | Cc1nc(-c2cc(O[C@@H](C)[C@@H]3CCCN3C)nc(-c3noc4c3CCC[C@@]43CCCc4sc(N)c(C#N)c43)n2)cs1 [II-103] | 0.002 µM | – | 0.07
